Test [1] addresses Tyrosine-protein kinase ABL1 (Homo sapiens) (UniProt P00519). Nature of the test: Inhibition of Abl1 (unknown origin) at 10 uM.
Test [2] concerns the target Bcr/Abl fusion protein (Homo sapiens) (UniProt P00519+P11274). Nature of the test: Inhibition of BCR/ABL Tyr245 phosphorylation in human K562 cells at 20 uM incubated for 6 to 24 hrs. It counts as cell-based.

Calls of active or inactive are those of the source. The rule behind the calls is not given here.

One may read the inhibition as the drop in the measured response relative to a control, in per cent.

Chain of Bcr/Abl fusion protein (Homo sapiens) (P00519 whole entry, looked up, the tested form may be a part): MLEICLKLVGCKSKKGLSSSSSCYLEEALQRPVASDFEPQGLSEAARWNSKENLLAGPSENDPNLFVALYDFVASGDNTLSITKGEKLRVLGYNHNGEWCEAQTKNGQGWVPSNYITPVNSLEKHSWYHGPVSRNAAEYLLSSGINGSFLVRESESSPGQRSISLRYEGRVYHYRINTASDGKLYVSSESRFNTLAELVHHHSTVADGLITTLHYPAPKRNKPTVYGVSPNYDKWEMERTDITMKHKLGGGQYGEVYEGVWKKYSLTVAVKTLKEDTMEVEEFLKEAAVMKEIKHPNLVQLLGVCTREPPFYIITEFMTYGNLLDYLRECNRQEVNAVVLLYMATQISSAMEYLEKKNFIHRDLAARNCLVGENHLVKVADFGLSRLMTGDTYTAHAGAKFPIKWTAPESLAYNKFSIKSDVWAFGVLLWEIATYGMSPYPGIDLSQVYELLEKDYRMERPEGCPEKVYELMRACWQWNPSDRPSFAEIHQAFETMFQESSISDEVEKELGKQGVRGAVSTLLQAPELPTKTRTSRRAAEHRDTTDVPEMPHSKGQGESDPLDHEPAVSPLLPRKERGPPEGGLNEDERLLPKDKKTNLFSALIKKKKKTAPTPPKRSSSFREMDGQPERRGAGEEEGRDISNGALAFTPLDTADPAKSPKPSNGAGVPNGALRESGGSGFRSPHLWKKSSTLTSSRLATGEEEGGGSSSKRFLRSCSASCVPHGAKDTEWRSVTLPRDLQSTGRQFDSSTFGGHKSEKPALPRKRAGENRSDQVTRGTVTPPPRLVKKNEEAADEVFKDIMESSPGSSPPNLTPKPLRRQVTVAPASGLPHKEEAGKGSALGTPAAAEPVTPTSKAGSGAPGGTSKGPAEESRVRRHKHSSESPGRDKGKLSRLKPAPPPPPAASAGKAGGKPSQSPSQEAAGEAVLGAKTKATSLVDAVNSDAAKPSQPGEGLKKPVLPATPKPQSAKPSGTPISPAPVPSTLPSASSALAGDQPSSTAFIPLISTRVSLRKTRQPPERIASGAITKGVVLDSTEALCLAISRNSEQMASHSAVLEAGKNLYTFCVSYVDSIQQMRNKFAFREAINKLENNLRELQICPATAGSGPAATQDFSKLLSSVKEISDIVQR
Chain of Bcr/Abl fusion protein (Homo sapiens) (P11274 whole entry, looked up, the tested form may be a part): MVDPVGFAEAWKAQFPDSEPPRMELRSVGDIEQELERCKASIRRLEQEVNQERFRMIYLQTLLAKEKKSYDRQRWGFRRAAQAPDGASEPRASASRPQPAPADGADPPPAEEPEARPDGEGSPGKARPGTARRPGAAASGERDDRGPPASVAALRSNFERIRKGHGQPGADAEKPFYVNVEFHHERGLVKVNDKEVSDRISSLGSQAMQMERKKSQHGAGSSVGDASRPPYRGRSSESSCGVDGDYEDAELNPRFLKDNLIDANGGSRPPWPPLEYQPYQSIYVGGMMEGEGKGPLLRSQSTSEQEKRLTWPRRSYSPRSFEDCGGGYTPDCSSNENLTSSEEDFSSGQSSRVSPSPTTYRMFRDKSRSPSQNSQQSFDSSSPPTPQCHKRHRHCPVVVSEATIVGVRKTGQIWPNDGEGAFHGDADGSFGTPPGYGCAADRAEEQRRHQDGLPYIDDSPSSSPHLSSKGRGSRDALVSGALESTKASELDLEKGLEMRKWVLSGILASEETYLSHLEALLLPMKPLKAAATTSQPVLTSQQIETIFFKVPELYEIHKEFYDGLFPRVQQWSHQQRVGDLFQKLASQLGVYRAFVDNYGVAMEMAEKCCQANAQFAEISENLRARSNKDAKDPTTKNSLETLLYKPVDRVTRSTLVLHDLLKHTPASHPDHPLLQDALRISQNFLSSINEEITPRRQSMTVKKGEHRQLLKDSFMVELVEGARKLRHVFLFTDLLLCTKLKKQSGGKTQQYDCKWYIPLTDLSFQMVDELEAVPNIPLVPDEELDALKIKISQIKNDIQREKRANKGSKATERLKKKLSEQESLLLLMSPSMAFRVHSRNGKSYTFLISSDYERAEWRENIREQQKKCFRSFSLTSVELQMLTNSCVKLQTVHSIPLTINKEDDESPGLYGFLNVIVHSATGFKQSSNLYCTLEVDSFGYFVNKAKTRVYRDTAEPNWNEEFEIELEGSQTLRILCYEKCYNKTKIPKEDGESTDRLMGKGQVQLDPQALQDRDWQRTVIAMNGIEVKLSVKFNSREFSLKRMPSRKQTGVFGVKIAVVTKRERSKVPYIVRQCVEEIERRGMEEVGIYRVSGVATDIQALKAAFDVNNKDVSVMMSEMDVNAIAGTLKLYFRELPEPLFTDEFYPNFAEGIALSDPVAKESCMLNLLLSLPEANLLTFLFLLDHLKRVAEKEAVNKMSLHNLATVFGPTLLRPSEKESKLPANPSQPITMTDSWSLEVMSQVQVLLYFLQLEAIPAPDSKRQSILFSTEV
Chain of Tyrosine-protein kinase ABL1 (Homo sapiens) (P00519 whole entry, the tested form may be a part): as the sequence (P00519 whole entry, looked up, the tested form may be a part) above

For the molecule `COc1cc(O)c(C2=NN(C(=S)Nc3cc(OC)c(OC)c(OC)c3)C(c3cccc4ccccc34)C2)cc1OC` (configuration not stated), the inhibition in test [1] amounted to 93%. The inhibition entry in test [2] is “Active”.

These data come from ChEMBL document CHEMBL4043180, “Biological evaluation of 2-pyrazolinyl-1-carbothioamide derivatives against HCT116 human colorectal cancer cell lines and elucidation on QSAR and molecular binding modes” (Bioorg Med Chem, 2017).
